Series [1] has as its system Candida albicans. In words: Antifungal activity against Candida albicans CAAL93 assessed as reduction in fungal growth. It is filed as functional, organism-based.
Series [2] deals with Leishmania donovani. Briefly: Antileishmanial activity against axenic amastigote form of Leishmania donovani LV9 assessed as reduction in parasite growth. The series is classed as functional, organism-based.
Series [3] concerns Aspergillus fumigatus. In words: Antifungal activity against Aspergillus fumigatus ASFU76 assessed as reduction in fungal growth after. It is filed as functional, organism-based.
Series [4] relates to Plasmodium falciparum. In words: Antimalarial activity against Plasmodium falciparum 3D7 assessed as inhibition of parasite growth. It is filed as functional, organism-based.
Series [5] concerns Candida albicans. In words: Antifungal activity against wild type Candida albicans. It is filed as functional.
Series [6] deals with Plasmodium falciparum. In words: Antimalarial activity against Plasmodium falciparum. It is filed as functional, organism-based.
A short description of series [7]: Selectivity index, ratio of CC50 for cytotoxicity against HUVEC cells to IC50 for antiplasmodial activity against Plasmodium falciparum 3D7. The series is classed as toxicity, cell-based. The note with it: human, read-out: Ratio CC50/IC50.
Series [8] is described as follows: Selectivity index, ratio of CC50 for cytotoxicity against HUVEC cells to IC50 for antileishmanial activity against axenic amastigote form of Leishmania donovani LV9. Conditions: human, read-out: Ratio CC50/IC50. The series is classed as toxicity, cell-based.
In series [9] the test system is Leishmania donovani. In words: Antileishmanial activity against intramacrophage form of Leishmania donovani LV9 assessed as reduction in parasite growth. It is filed as functional, organism-based.
Series [10] is described as follows: Cytotoxicity against HUVEC cells assessed as reduction in cell viability. The series is classed as cell-based. Conditions: human.

Converted amounts (≈) assume the structure as drawn.

The IC50 is the concentration at which inhibition is half-maximal. In the case of `C=CCC1CC(C2CCCCC2)OO1` (mixture of isomers), the IC50 in [1] is more than 100 µM; in series [2], 6.78 µM; in series [3], more than 100 µM; in series [4] it was more than 1 µM.

As usually defined, the MIC is the smallest concentration in the dilution series that meets the test's criterion for growth inhibition. High values mean a less susceptible organism, low ones a more susceptible organism. Broadly, the EC50 is the concentration giving half of the maximal effect. For `C=C/C=C/C=C\C=C\C=C\C=C/C=C\C[C@H]1C[C@@H](CC(=O)O)OO1`, in series [5], inhibition of growth (MIC) required 0.61 µM (≈ 0.2 µg/mL). In [6], this molecule showed an EC50 of 0.052 µM.

Broadly, the CC50 is the concentration at which the toxic effect on the cells reaches its halfway point. On to `CCCCCCC1CC(C/C=C\Cl)OO1` (mixture of isomers), for which the selectivity ratio in series [7] was 40; in [8], 4.09. Also, the IC50 in series [1] was 33.4 µM; in series [2] it was 1.5 µM; in series [3], more than 100 µM; in series [9], 28.4 µM; in series [4], 0.15 µM. Besides, the cytotoxic concentration (CC50) in [10] was found to be 6.13 µM.

Regarding `OC(Cn1cncn1)(Cn1cncn1)c1ccc(F)cc1F` [FLUCONAZOLE], in [1], the IC50 worked out at 0.3 µM.

As for `CCN(CC)CCCC(C)Nc1ccnc2cc(Cl)ccc12` (configuration not stated) [CHLOROQUINE], in series [10], the CC50 was found to be 31.5 µM.

In the case of `CC(C)(C)C1CC(O)OO1` (mixture of isomers), the selectivity ratio in [7] was 35; in series [8] it was less than 0.12. For the same molecule, the IC50 is more than 100 µM in [1]; more than 100 µM in [2]; more than 100 µM in [3]; more than 100 µM in [9]; 0.34 µM in [4]. Further, the CC50 in series [10] turned out to be 12.2 µM.

With `CCCCCCC1CC(OC(C)=O)OO1` (mixture of isomers), the selectivity ratio was less than 57 in series [7] and 0.82 in series [8]. Besides, the IC50 was more than 100 µM in [1]; 70.7 µM in series [2]; more than 100 µM in series [3]; more than 100 µM in series [9]; more than 1 µM in series [4]. Besides, in series [10], the CC50 came out at 57.8 µM.

As to `CCCCCCC1CC(CC(=O)Sc2ccccc2)OO1` (mixture of isomers), the selectivity ratio in series [7] is less than 1.8; in series [8], 0.83. Moreover, the IC50 in series [1] is more than 100 µM; in series [2], 2.2 µM; in [3], more than 100 µM; in [9], more than 100 µM; in series [4] it was more than 1 µM. In [10], the CC50 was 1.82 µM.

With `C=CCC1CC(CCO[Si](c2ccccc2)(c2ccccc2)C(C)(C)C)OO1` (mixture of isomers), the IC50 in [1] is more than 100 µM; in series [2], more than 100 µM; in [3], more than 100 µM; in series [4], more than 1 µM.

`C[C@@H]1[C@H](O)[C@@H](C)/C=C/C=C/C=C/C=C/C=C/C=C/C=C/[C@H](O[C@@H]2O[C@H](C)[C@@H](O)[C@H](N)[C@@H]2O)C[C@@H]2O[C@](O)(C[C@@H](O)C[C@@H](O)[C@H](O)CC[C@@H](O)C[C@@H](O)CC(=O)O[C@H]1C)C[C@H](O)[C@H]2C(=O)O` [AMPHOTERICIN B]: in [3], the IC50 is 0.33 µM.

In the case of `C=C(C)CC1CC(CCCCCC)OO1` (mixture of isomers), the selectivity ratio came to 68 in series [7] and 1.71 in series [8]. Besides, the IC50 in [1] is 35.7 µM; in series [2], 6.82 µM; in series [3] it was 35.7 µM; in series [9] it was more than 100 µM; in series [4], 0.17 µM. For the same molecule, the CC50 in series [10] worked out at 11.7 µM.

Turning to `CC(=O)OC1CC(C2CCCCC2)OO1` (mixture of isomers), the IC50 in [1] was more than 100 µM; in series [2] it was 56.6 µM; in series [3], more than 100 µM; in [4] it was more than 1 µM.

With `CCCCCCC1CC(C#N)OO1` (mixture of isomers), the results for the selectivity ratio in series [7] and in series [8] were less than 10 and 0.26, respectively. Moreover, the IC50 was more than 100 µM in [1]; 42.9 µM in [2]; more than 100 µM in series [3]; more than 100 µM in [9]; more than 1 µM in [4]. In addition, the CC50 in series [10] is 10.9 µM.

With `CC(=O)OC1CC(C(C)C)OO1` (mixture of isomers), the IC50 is more than 100 µM in series [1]; more than 100 µM in series [2]; more than 100 µM in [3]; 32.9 µM in series [9]; 0.1 µM in [4]. Besides, the selectivity ratio in series [8] is less than 0.59. Moreover, in series [10], the CC50 came to 59.3 µM.

On to `CCCCCCCCCCCCCCC[C@H]1C[C@@H](CC(=O)O)OO1`, for which the IC50 in series [1] is more than 100 µM; in [2], 6.16 µM; in series [3] it was more than 100 µM; in series [4] it was more than 1 µM.

Take `CCCCCCC1CC(CC(=O)C(C)(C)C)OO1` (mixture of isomers): the results for the selectivity ratio in series [7] and in [8] were less than 6 and 1.38, respectively. Further, the IC50 is more than 100 µM in [1]; 4.42 µM in series [2]; more than 100 µM in series [3]; more than 100 µM in series [9]; more than 1 µM in [4]. Moreover, in series [10], the CC50 was determined as 6.09 µM.

As for `CCCCCCCCCCCCCCC[C@H]1C[C@@H](CCO)OO1` (mixture of isomers), the IC50 in [1] is more than 100 µM; in series [2] it was 5.57 µM; in series [3] it was more than 100 µM; in [4] it was more than 1 µM.

As for `CCCCCCC1CC(O)OO1` (mixture of isomers), the selectivity ratio was less than 71 in [7] and less than 0.72 in [8]. Further, the IC50 in series [1] is more than 100 µM; in series [2] it was more than 100 µM; in series [3], more than 100 µM; in series [9], more than 100 µM; in series [4] it was more than 1 µM. The CC50 in series [10] stood at 71.7 µM.

Regarding `CCCCCCC1CC(CC(=O)c2ccccc2)OO1` (mixture of isomers), the selectivity ratio is 24 in series [7] and less than 0.09 in series [8]. In addition, the IC50 in [1] was more than 100 µM; in series [2] it was more than 100 µM; in series [3], more than 100 µM; in [4] it was 0.37 µM. The CC50 in series [10] was 9.02 µM.

Consider `CC(C)C1CC(O)OO1` (mixture of isomers), for which the figures for the selectivity ratio in series [7] and in [8] were 234 and less than 0.28, respectively. Also, the IC50 in series [1] is more than 100 µM; in [2], more than 100 µM; in series [3], more than 100 µM; in series [9] it was more than 100 µM; in [4] it was 0.12 µM. Moreover, in [10], the CC50 stood at 28.2 µM.

Regarding `CCCCCCC1CC(CC(=O)SCC)OO1` (mixture of isomers), the selectivity ratio in series [7] came to 7; in series [8], 1.01. The IC50 is more than 100 µM in series [1]; 1.88 µM in series [2]; more than 100 µM in series [3]; 38.9 µM in series [9]; 0.25 µM in [4]. In series [10], the cytotoxic concentration (CC50) amounted to 1.89 µM.

For `CC(=O)OC1CC(CCO[Si](c2ccccc2)(c2ccccc2)C(C)(C)C)OO1` (mixture of isomers), the IC50 was more than 100 µM in series [1], more than 100 µM in [2], more than 100 µM in [3] and more than 1 µM in series [4].

Regarding `CCCCCCC1CC(C/C=C\Br)OO1` (mixture of isomers), the selectivity ratio in series [7] is less than 2; in series [8], 1.48. Moreover, the IC50 is more than 100 µM in series [1]; 1.55 µM in [2]; more than 100 µM in [3]; 33.6 µM in series [9]; more than 1 µM in [4]. Further, in [10], the CC50 was 2.29 µM.

Regarding `CCCCCCCCCCCCCCCCOP(=O)([O-])OCC[N+](C)(C)C` [MILTEFOSINE], the IC50 was determined as 1.7 µM in series [2] and 0.61 µM in series [9]. The selectivity ratio in series [8] was 32. The CC50 in series [10] came to 54.3 µM.

For the molecule `CC(=O)OC1CC(C(C)(C)C)OO1` (mixture of isomers), the selectivity ratio in series [7] is 628; in [8], less than 0.13. In addition, the IC50 in series [1] was more than 100 µM; in series [2], more than 100 µM; in series [3] it was more than 100 µM; in series [9], 44.3 µM; in series [4], 0.02 µM. Besides, the CC50 in series [10] came to 12.6 µM.

Consider `CCCCCCC1CCOO1` (configuration not stated), for which the selectivity ratio is less than 10.6 in series [7] and 0.2 in series [8]. Further, the IC50 in series [1] is more than 100 µM; in series [2], 49.8 µM; in series [3] it was more than 100 µM; in series [4], more than 1 µM. For the same molecule, in [10], the CC50 is 10.6 µM.

With `C=CCC1CC(CCCCCC)OO1` (mixture of isomers), the selectivity ratio was 7 in [7] and less than 0.01 in series [8]. Also, the half-maximal inhibitory concentration (IC50) in series [1] was 25.2 µM; in series [2], more than 100 µM; in [3] it was more than 100 µM; in series [4] it was 0.1 µM. For the same molecule, in [10], the CC50 was determined as 0.7 µM.

For the origin of these results see ChEMBL document CHEMBL4819148, “Anti-protozoal and anti-fungal evaluation of 3,5-disubstituted 1,2-dioxolanes” (Bioorg Med Chem Lett, 2021).
